In PMC3992131 (Nature chemical biology, 2014):
Like-named read-outs stand apart in the source and are kept apart here. Values belong to the compound of their own block, whether it stands above or below them. Where a SMILES comes first, the peptide text is derived from it. Bridges are numbered along the chain shown (N, C = ends). Where no end group is shown, it is not given here.

Key:
[1] = system: FhuA; conditions: cited from earlier work
[2] = complex fluid matrices; cited from earlier work
[3] = system: E. coli RNA polymerase; conditions: in vitro; cited from earlier work
[4] = system: E. coli W3110 wildtype and tonB− strains; assay: tonB antibacterial assay; type: cell-based; conditions: spot-on-lawn, 10 μL MccJ25 in MeOH (1-100 μg/mL), LB agar, 37°C overnight
[5] = system: Escherichia and Salmonella species; conditions: cited from earlier work
[6] = system: Salmonella; conditions: mouse model of infection by Salmonella; cited from earlier work
[7] = biological target: FhuA (Escherichia coli) (UniProt P06971); assay: ITC; conditions: cited from earlier work
[8] = biological target: FhuA from E. coli MG1655 with an internal His-tag (E. coli) (UniProt P06971); assay: native MS
[9] = biological target: T1, E. coli FhuA (Escherichia coli, UniProt P06971); assay: biochemical; type: binding, Escherichia coli MG1655
T1 sequence (P06971 34-747): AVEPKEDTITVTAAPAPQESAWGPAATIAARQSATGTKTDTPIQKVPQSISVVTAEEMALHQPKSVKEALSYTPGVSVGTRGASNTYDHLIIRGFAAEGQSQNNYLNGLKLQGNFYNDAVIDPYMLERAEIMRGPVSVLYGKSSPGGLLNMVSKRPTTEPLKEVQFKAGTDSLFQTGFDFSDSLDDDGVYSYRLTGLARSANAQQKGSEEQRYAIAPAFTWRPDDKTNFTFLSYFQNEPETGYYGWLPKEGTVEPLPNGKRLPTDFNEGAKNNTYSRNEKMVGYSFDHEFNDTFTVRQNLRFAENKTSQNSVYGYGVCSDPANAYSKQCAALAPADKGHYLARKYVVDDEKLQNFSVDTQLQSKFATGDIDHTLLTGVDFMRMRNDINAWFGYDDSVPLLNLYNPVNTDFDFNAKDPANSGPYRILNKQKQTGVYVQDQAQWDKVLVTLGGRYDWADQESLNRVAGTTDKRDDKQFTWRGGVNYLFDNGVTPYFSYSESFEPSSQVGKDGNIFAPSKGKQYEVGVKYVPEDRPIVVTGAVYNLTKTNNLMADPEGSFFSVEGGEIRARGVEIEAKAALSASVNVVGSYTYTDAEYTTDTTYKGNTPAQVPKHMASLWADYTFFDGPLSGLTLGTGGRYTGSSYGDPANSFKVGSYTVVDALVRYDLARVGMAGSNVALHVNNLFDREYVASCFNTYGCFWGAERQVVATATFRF

[10] = system: human erythrocytes; conditions: cited from earlier work

Compound: CO[C@H]1/C=C/O[C@@]2(C)Oc3c(C)c(O)c4c(c3C2=O)C(=O)C(N2CCOCC2)=C(NC(=O)/C(C)=C\C=C\[C@H](C)[C@H](O)[C@@H](C)[C@@H](O)[C@@H](C)[C@H](OC(=O)CC(=O)OCC2CCCN(C)C2)[C@@H]1C)C4=O (stereo partly shown) [CGP 4832]
transport by FhuA [1]: can transport

Compound: CC[C@H](C)[C@H](NC(=O)CNC(=O)[C@@H](NC(=O)[C@H](Cc1ccccc1)NC(=O)[C@H](Cc1ccc(O)cc1)NC(=O)[C@@H]1CCC(=O)NCC(=O)NCC(=O)N[C@@H](C)C(=O)NCC(=O)N[C@@H](Cc2c[nH]cn2)C(=O)N[C@@H](C(C)C)C(=O)N2CCC[C@H]2C(=O)N1)C(C)C)C(=O)NCC(=O)N[C@H](C(=O)N1CCC[C@H]1C(=O)N[C@H](C(=O)N[C@@H](CO)C(=O)N[C@@H](Cc1ccccc1)C(=O)N[C@@H](Cc1ccc(O)cc1)C(=O)NCC(=O)O)[C@@H](C)CC)[C@@H](C)O [MccJ25, microcin J25] (GGAGHVPEYFVGIGTPISFYG-OH; lactam N-8; C-terminus assumed)
antibacterial activity ex vivo [2]: has been demonstrated both ex vivo, in complex fluid matrices
inhibition of E. coli RNA polymerase [3]: inhibit E. coli RNA polymerase with equal efficiency in vitro
internalization dependence on TonB [4]: dependent on the FhuA-TonB system
antibacterial activity/spectrum [5]: potent antibacterial activity exclusively against Escherichia and some Salmonella species
antibacterial activity/spectrum ([5]; through inhibition of RNA polymerase): potent, narrow spectrum antibacterial activity against Escherichia and Salmonella species
antibacterial activity in vivo [6]: in vivo in a mouse model of infection by Salmonella

Compound: MccJ25 (from UniProt Q9X2V7)
Kd [7]: 1200 nM

Kd [8]: 16900 nM
Compound: MccJ25[His5Lys] (peptide)

Compound: CO[C@H]1/C=C/O[C@@]2(C)Oc3c(C)c(O)c4c(O)c(cc(O)c4c3C2=O)NC(=O)/C(C)=C\C=C\[C@H](C)[C@H](O)[C@@H](C)[C@@H](O)[C@@H](C)[C@H](OC(C)=O)[C@@H]1C [rifamycin]
transport by FhuA [1]: cannot efficiently transport

Kd [9]: 980 ± 20 nM
Compound: CC[C@H](C)[C@H](NC(=O)CNC(=O)[C@@H](NC(=O)[C@H](Cc1ccccc1)NC(=O)[C@H](Cc1ccc(O)cc1)NC(=O)[C@@H]1CCC(=O)NCC(=O)NCC(=O)N[C@@H](C)C(=O)NCC(=O)N[C@@H](Cc2cnc[nH]2)C(=O)N[C@@H](C(C)C)C(=O)N2CCC[C@H]2C(=O)N1)C(C)C)C(=O)NCC(=O)N[C@H](C(=O)N1CCC[C@H]1C(=O)N[C@H](C(=O)N[C@@H](CO)C(=O)N[C@@H](Cc1ccccc1)C(=O)N[C@@H](Cc1ccc(O)cc1)C(=O)NCC(=O)O)[C@@H](C)CC)[C@@H](C)O [MccJ25, microcin J25] (GGAGHVPEYFVGIGTPISFYG-OH; lactam N-8)
haemolytic activity [10]: without haemolytic activity on human erythrocytes

binding to FhuA (result in words) [9]: absence of binding to FhuA
Compound: t-MccJ25: MccJ25 hydrolyzed between Phe10 and Val11, obtained by incubation of MccJ25 in the presence of thermolysin (chain 1 GGAGHVPEYF; chain 2 VGIGTPISFYG; also: lactam at chain A 8 to a chain's N-terminus)
